Experimental data from patent US11407725B2 (The Board of Trustees of the University of Illinois, priority 2018, dated 2022).
Values joined by “and” are separate entries in the source; they are usually repeats but may differ in a detail not shown here. Equal entries are not always repeated. “Also recorded” adds a separate entry of the source.

Columns and labels:
[1] = test system: A549 cells; assay: Confocal imaging of A549 cells with red-AlDeSense; type: cell-based; conditions: 1 μM dye
Procedure: Nunc™ Lab-Tek™ 8-well Chamber Coverglass (Thermo Fisher) were coated with poly-L-lysine (Trevigen). For cells that were also stained with an antibody, 2,000,000 cells were transferred to an Eppendorf tube. The cells were resuspended in 200 μL of antibody buffer (5% BSA and 1 mg/mL NaN3 in PBS) and treated with 2 μL FITC-labeled anti-CD44 antibody (10 mg/mL, Sino Biological) and left on ice for 20 minutes. In all cases, cells were added at 150,000 cells/well to the coated slides 1 hour prior to imaging. […] Cells were treated with 100 uL red-AlDeSense or Ctrl-red-AlDeSense solution (4 μM dye in imaging buffer; dyes were normalized by fluorescence spectroscopy) and 0.8 μL Hoescht 33342 (5 mg/mL in PBS) for 10 minutes. […] Hoescht 33342 was excited with a 405 nm laser and detected with a 415-502 filter set. FITC was excited with a 488 nm laser and detected with a 502-561 filter set. […] was excited with a 594 nm laser and detected with a 600-735 filter set. […] Images were analyzed using ZEN 3.0 (blue edition) software. Mean fluorescence for the FITC-labeled anti-CD44 antibody was multiplied by the cell diameter to account for its 1-dimensional cell membrane staining, as opposed to 2-dimensional intracellular staining of (Ctrl-)red-AlDeSense.

[2] = test system: B16F0 melanoma cells; assay: B16F0 melanoma confocal imaging (e-CSC vs non-CSC); type: cell-based, murine
Procedure: B16F0 Melanoma Confocal Imaging. B16F0 murine melanoma cells were cultured for 5 days on polyacrylamide hydrogels with or without spiral patterns as described previously (Drug Discov Today 2014, 19, 1953). The coverslips on which the hydrogels and cells were mounted were transferred to a glass-bottomed dish for confocal imaging, leaving the cells intact. Solutions of either 2 μM AlDeSense AM or 2 μM Ctrl-AlDeSense AM in PBS were added to the two types of cells. The cells were incubated at room temperature for 1 h and then immediately imaged. Confocal imaging was performed on a Zeiss LSM700 Confocal Microscope, utilizing the 488 nm laser line to excite AlDeSense AM and the 20×/0.8 objective. Three different coverslips of cells were imaged for each set of conditions and at least 6 μmages were taken for each coverslip. Using ImageJ, ROIs were drawn around areas covered with cells and mean fluorescence values were measured for each image.

[3] = target: T1, ALDH1A1 (Homo sapiens, UniProt P00352); assay: Fluorescence turn-on of AlDeSense with recombinant ALDH1A1; type: biochemical; conditions: fluorescent enhancement when treated with ALDH1A1; 1 μM probe
T1 construct: made in house
T1 sequence (P00352 1-501): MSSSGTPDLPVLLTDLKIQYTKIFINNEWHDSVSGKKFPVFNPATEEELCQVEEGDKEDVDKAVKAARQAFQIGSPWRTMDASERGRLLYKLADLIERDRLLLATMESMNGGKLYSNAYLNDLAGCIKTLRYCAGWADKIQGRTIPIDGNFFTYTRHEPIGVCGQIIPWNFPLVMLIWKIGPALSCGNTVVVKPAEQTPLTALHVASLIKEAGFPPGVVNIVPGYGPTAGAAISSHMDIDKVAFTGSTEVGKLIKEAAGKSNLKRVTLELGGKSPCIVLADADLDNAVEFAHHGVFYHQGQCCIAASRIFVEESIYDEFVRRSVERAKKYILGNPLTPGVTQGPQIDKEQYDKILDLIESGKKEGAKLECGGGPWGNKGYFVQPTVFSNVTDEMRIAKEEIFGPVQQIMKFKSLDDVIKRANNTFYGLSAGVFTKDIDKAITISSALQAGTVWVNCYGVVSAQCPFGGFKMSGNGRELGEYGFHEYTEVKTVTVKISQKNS
Procedure: Activation of AlDeSense was assessed using 20 units of each ALDH isoform. Activity was determined by activity measurements using each isoform's preferred substrate (1 unit=1 μmol substrate turned over/mol enzyme/min). Further details are in the supplementary information. All enzymatic reactions were performed in 50 mM triethanolamine buffer (pH 7.4, Thermo Fisher) with 2.5 mM NAD+(Alfa Aesar) and 5% v/v DMSO (Thermo Fisher) in a 1 mL quartz cuvette at room temperature.
AlDeSense activation was determined using fluorescence. Immediately before measurement, AlDeSense (1 μM) was added to a quartz cuvette. After vigorous mixing, the reaction was monitored at room temperature for 15 min. Fluorescence spectra were acquired according to following parameters: λex=498 nm, and emission range=505-580 nm. All scans were normalized to the signal from AlDeSense in 50 mM TEA and 2.5 mM NAD+(without enzyme). Endpoint measurements at 15 min were performed in triplicate and reported as the averages±standard deviation.

[4] = test system: panel of the most common ALDH isoforms; assay: AlDeSense isoform selectivity assay; type: biochemical, human; conditions: 20 units of each isoform, 1 μM AlDeSense
Procedure: The activity of each isoform of ALDH was confirmed by monitoring the production of NADH at 340 nm when incubated with the most commonly used substrate for that enzyme (propionaldehyde for ALDH1A1, ALDH1A2, ALDH1A3, ALDH2 and ALDH4A1; benzaldehyde for ALDH3A1, and succinic semialdehyde for ALDH5A1). Each isoform was diluted with 50 mM triethanolamine (TEA, pH 7.4) to a final concentration of 1 μM and placed in a 1 mL quartz cuvette. Directly before measurement, NAD^+ was added to final concentration of 2.5 mM and the preferred substrate was added to a final concentration of 1 mM. Absorbance spectra were taken from 300 to 500 nm every half minute for 15 minutes. Units of activity for each enzyme were calculated from the slope of absorbance increase at 340 nm over time, (1 unit=1 μmol substrate turned over/[…]/min).
Activation of AlDeSense was assessed using 20 units of each ALDH isoform. Activity was determined by activity measurements using each isoform's preferred substrate (1 unit=1 μmol substrate turned over/mol enzyme/min). Further details are in the supplementary information. […]
AlDeSense activation was determined using fluorescence. […] After vigorous mixing, the reaction was monitored at room temperature for 15 min. Fluorescence spectra were acquired according to following parameters: λex=498 nm, and emission range=505-580 nm. […]

[5] = test system: e-CSC and non-CSC melanoma lung metastases; assay: Ex vivo lung metastases imaging; type: in vivo, mice; conditions: lungs perfused ex vivo, day 7 and 11
Procedure: Six to eight-week-old female C57BL/6J mice were purchased from Jackson Laboratory. Experimental metastases were established by injecting 2×10^5 melanoma cells via lateral tail vein injection. Mice were euthanized at either 7- or 11-days post injection. Immediately after euthanization, their lungs were excised and perfused with about 1 mL of either 15 μM AlDeSense AM or 15 μM Ctrl-AlDeSense AM in PBS. Outer portions of the lungs were rinsed in 15 mL of PBS to remove blood or excess dyes. After 2 hours incubation at room temperature (25° C.), the lungs were imaged on the IVIS spectrum imaging system (Perkin Elmer). Data was processed using Living Image software (Version 4.1).

[6] = pKa determination (pH profile of fluorescence); conditions: 40 mM Britton-Robinson buffer
Procedure: The fluorescence of 1 μM of each compound was measured in 40 mM Britton-Robinson buffer at pH 2-9 in 0.5 pH intervals. Each measurement was performed in triplicate. […] Error bars are ±standard deviation (SD).

| Compound | A549 cells with high ALDH1A1 activity by confocal microscopy [1] [%] | brightness of e-CSCs versus e-CSCs treated with Ctrl-AlDeSense [2] [fold] | brightness of e-CSCs versus non-CSCs ([2]; both stained with AlDeSense) [fold] | Turn-on (fold) [3] | cross-reactivity against panel of ALDH isoforms [4] | fluorescence of e-CSC lungs versus non-CSC lungs [5] | pKa [6] |
| --- | --- | --- | --- | --- | --- | --- | --- |
| Cc1cc(C=O)c(F)c(F)c1C1=C2C=CC(=O)C=C2[Si](C)(C)c2cc(O)ccc21 | 77.6 | – | – | – | – | – | – |
| Cc1cc(C=O)ccc1-c1c2cc(F)c(=O)cc-2oc2cc(O)c(F)cc12 [AlDeSense] | – | 9.0 | 11.3 | 20 fold and 20.0 fold | only ALDH1A1 led to probe activation; also recorded: did not observe cross-reactivity; also recorded: selective for only the ALDH1A1 isoform | higher | 4.81 |
